Reference: ChEMBL document CHEMBL1201862, “PubChem BioAssay data set” (2004)
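Compound exposure: 48 hours, 5 concentrations, 96-well plates. Abbreviation: GI50, concentration required for 50% inhibition of growth.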 Activity calls are given as the source filed them. No stated cut-off is given here; in the data, active = GI50 up to about 1.1 µM and inactive = higher.

Columns and labels:
Assay in all cases: NCI anticancer screen, dose series, 48 h
[1] = system: SNB-75
[2] = system: U-251
[3] = system: SR
[4] = system: MDA-N
[5] = system: OVCAR-5
[6] = system: TK-10
[7] = system: HOP-62
[8] = system: RXF 393
[9] = system: DU-145
[10] = system: HL-60
[11] = system: Hs-578T
[12] = system: KM12
[13] = system: NCI-H522
[14] = system: SF-268
[15] = system: M14
[16] = system: COLO 205
[17] = system: RPMI-8226
[18] = system: Malme-3M
[19] = system: SN12C
[20] = system: LOX IMVI
[21] = system: EKVX
[22] = system: NCI-H23
[23] = system: ACHN
[24] = system: MCF7
[25] = system: A498
[26] = system: K562
[27] = system: HCT-116
[28] = system: NCI-H460
[29] = system: MOLT-4
[30] = system: SW-620
[31] = system: UACC-257
[32] = system: HCC 2998
[33] = system: SF-539
[34] = system: SK-OV-3
[35] = system: SF-295
[36] = system: UO-31
[37] = system: MDA-MB-435
[38] = system: SK-MEL-28
[39] = system: NCI-H226
[40] = system: SK-MEL-5
[41] = system: IGROV-1
[42] = system: 786-0
[43] = system: CAKI-1
[44] = system: HT-29
[45] = system: HOP-92
[46] = system: T47D
[47] = system: SK-MEL-2
[48] = system: OVCAR-3
[49] = system: PC-3
[50] = system: UACC-62
[51] = system: MDA-MB-231
[52] = system: HCT-15
[53] = system: OVCAR-8
[54] = system: NCI/ADR-RES
[55] = system: A549
[56] = system: OVCAR-4
[57] = system: CCRF-CEM

CC(NNC(=O)c1ccncc1)c1cccc(C(F)(F)F)c1 (configuration not stated)
GI50 [1]: > 100 µM (inactive) | GI50 [2]: > 100 µM (inactive) | GI50 [3]: > 100 µM (inactive) | GI50 [4]: > 100 µM (inactive) | GI50 [5]: > 100 µM (inactive) | GI50 [6]: > 100 µM (inactive) | GI50 [7]: > 100 µM (inactive) | GI50 [8]: > 100 µM (inactive) | GI50 [9]: > 100 µM (inactive) | GI50 [10]: > 100 µM (inactive) | GI50 [11]: > 100 µM (inactive) | GI50 [12]: > 100 µM (inactive) | GI50 [13]: > 100 µM (inactive) | GI50 [14]: > 100 µM (inactive) | GI50 [15]: > 100 µM (inactive) | GI50 [16]: > 100 µM (inactive) | GI50 [17]: > 100 µM (inactive) | GI50 [18]: > 100 µM (inactive) | GI50 [19]: > 100 µM (inactive) | GI50 [20]: > 100 µM (inactive) | GI50 [21]: > 100 µM (inactive) | GI50 [22]: > 100 µM (inactive) | GI50 [23]: > 100 µM (inactive) | GI50 [24]: > 100 µM (inactive) | GI50 [25]: > 100 µM (inactive) | GI50 [26]: > 100 µM (inactive) | GI50 [27]: > 100 µM (inactive) | GI50 [28]: > 100 µM (inactive) | GI50 [29]: > 100 µM (inactive) | GI50 [30]: > 100 µM (inactive) | GI50 [31]: > 100 µM (inactive) | GI50 [32]: > 100 µM (inactive) | GI50 [33]: > 100 µM (inactive) | GI50 [34]: > 100 µM (inactive) | GI50 [35]: > 100 µM (inactive) | GI50 [36]: > 100 µM (inactive) | GI50 [37]: > 100 µM (inactive) | GI50 [38]: > 100 µM (inactive) | GI50 [39]: > 100 µM (inactive) | GI50 [40]: > 100 µM (inactive) | GI50 [41]: > 100 µM (inactive) | GI50 [42]: > 100 µM (inactive) | GI50 [43]: > 100 µM (inactive) | GI50 [44]: > 100 µM (inactive) | GI50 [45]: > 100 µM (inactive) | GI50 [46]: > 100 µM (inactive) | GI50 [47]: > 100 µM (inactive) | GI50 [48]: 0.265 µM (active) | GI50 [49]: > 100 µM (inactive) | GI50 [50]: > 100 µM (inactive) | GI50 [51]: > 100 µM (inactive) | GI50 [52]: > 100 µM | GI50 [53]: > 100 µM (inactive) | GI50 [54]: > 100 µM (inactive) | GI50 [55]: > 100 µM (inactive) | GI50 [56]: > 100 µM (inactive) | GI50 [57]: > 100 µM (inactive)
